For series [1] the following is noted: 30 ml of 0.9% benzyl alcohol in saline, estimated from animal studies; cited from earlier work.
A short description of series [2]: Budiodarone concentration attainable in hyperconcentrated solutions (Examples 16-18). The format is physicochemical. The procedure:
The benzyl alcohol/budiodarone tartrate solution is viscous and therefore direct measurement of the budiodarone concentration is difficult. A better way to measure budiodarone concentration in the solution of benzyl alcohol and budiodarone oil or in a hyperconcentrated solution is by using an indirect method. In this example, the volume of the benzyl alcohol/budiodarone mixture was measured, which in turn allowed for the calculation of an accurate budiodarone concentration.
In each of five vials of accurately known volume, budiodarone tartrate (250 mg) and benzyl alcohol (91 μl) were mixed in order to make a 3/1 mixture (mol/mol). Then the solution was mixed thoroughly in order to make a clear solution. This was aided with the help of warming to 50° C. for 3 minutes in order to reduce the viscosity of the mixture. The weight of the vial containing the 3:1 mixture of benzyl alcohol/budiodarone was then recorded. Vial number 1 was filled with silicon oil of density d=0.964 and weighed again. The difference in weight provided the weight of the silicon oil added. This, divided by the density of the silicon oil provided the volume of silicon oil necessary to fill the vial. The difference with the known volume of the vial represents the volume of the benzyl alcohol/budiodarone mixture. To Vial numbers 2, 3, 4, and 5 was added 50, 100, 200, and 400 μl of water, respectively. The contents of the vials were then thoroughly mixed in order to get hyperconcentrated solutions of different volumes and different budiodarone concentrations. The volumes of these hyperconcentrations using silicon oil were measured as described above.
The same experiment as Example 16 was replicated, using mixtures of 5/1 ratio (250 mg of budiodarone tartrate and 152 μl of benzyl alcohol) and various volumes of water added. Using the same procedure as Example 16, a maximum calculated budiodarone concentration of 737 mg/ml and a maximum benzyl alcohol concentration of 45% (v/v) were found.
Similarly, the experiment in Example 16 was replicated, using a 1/1 mixture (250 mg of budiodarone tartrate and 30 μl of benzyl alcohol). A maximum calculated budiodarone concentration of 1,136 mg/ml and a maximum benzyl alcohol concentration of 13.6% (v/v) were found.

The subject of series [3] is sodium, potassium, and calcium ion channels. The note with it: in vivo; cited from earlier work.
A short description of series [4]: Solubility of budiodarone tartrate in water (Example 2). In kind it is physicochemical. The procedure:
The aqueous solubility of budiodarone tartrate was measured in pure distilled water. Budiodarone tartrate (250 mg) was suspended in distilled water (10 ml) and the suspension was vortexed on a VWR Genie 2 vortexer at maximum speed for 3×10 sec duration. The suspension was then stirred for 96 hours at room temperature, protected from light. After 96 hours, the suspension was vortexed again and a 1 ml aliquot was centrifuged at 13,000 rpm for 10 minutes to precipitate all insoluble material. A 40 μl aliquot of the clear supernatant was diluted with 960 μl of methanol (25-fold dilution) and was analyzed by HPLC using Conditions 3.
The amount of budiodarone in solution is found to be 7.04 mg/ml. This figure is the solubility of budiodarone tartrate in water.

The structures appear in SMILES notation. Structures can show the parent of a compound that is named as a salt.

The term solubility denotes the dissolved amount per volume that the medium holds.

`OCc1ccccc1` [benzyl alcohol]: the “amount estimated to be safe by rapid intravenous infusion” value in series [1] is “approximately 4.5 mg/kg”. Moreover, the entries for the “maximum benzyl alcohol concentration” value in series [2] (1/1 mixture), in series [2] (3:1 molar ratio of benzyl alcohol/budiodarone) and in series [2] (5/1 ratio) were 13.6 % (v/v), 32.4 % (v/v) and 45 % (v/v), respectively.

Take `CCN(CC)CCOc1c(I)cc(C(=O)c2c(CC(=O)O)oc3ccccc23)cc1I` [ATI-2000]: in series [3], the “electrophysiological activity of the major metabolite” value is “electrophysiologically inactive”.

On to `CC[C@H](C)OC(=O)Cc1oc2ccccc2c1C(=O)c1cc(I)c(OCCN(CC)CC)c(I)c1` [budiodarone tartrate, (1S)-1-methylpropyl 2-(3-{4-[2-(diethylamino)ethoxy]-3,5-diiodobenzoyl}benzofuran-2-yl)acetate, hydrogen (2R,3R)-2,3-dihydroxybutanedioate], for which the “degradation products in the clear supernatant” value in series [4] (after 96 hours stirring in distilled water at room temperature, HPLC) is on record as “No significant amount of degradation products were detected”. The solubility at 96 h in series [4] (distilled water, water, thermodynamic from solid, water, room temperature, read-out: aqueous solubility of budiodarone tartrate) was found to be 7040 µg/mL. Besides, in series [4] (water, room temperature), the “aqueous solubility of budiodarone tartrate” value is “about 7 mg/ml”.

Values taken from patent US20140309296A1, “BUDIODARONE FORMULATIONS” (Armetheon, Inc., priority 2013, published 2014).
